Source: patent US11026946B2, “Pharmacologically active alicyclic-substituted pyrazolo[1,5-a]pyrimidine derivatives” (RICHTER GEDEON NYRT., priority 2017, dated 2021)

What was measured:
[1] = target: T1, GABAB receptor (Rattus norvegicus, UniProt O88871+Q9Z0U4); assay: In vitro [35S]GTPγS binding assay in rat cortical membranes; assay type: biochemical; details: PAM EC50, [35S]GTPγS binding, read-out: In vitro PAM potency
T1 construct: from tissue; host or cells: rat brain cortex membranes
Description: In Vitro [^35S]GTPγS Binding Assay in Rat Cortical Membranes
Cortices of freshly harvested rat brains were dissected on an ice-cold surface and homogenized by a glass Dounce homogeniser immediately in ice-cold buffer containing 50 mM Tris, 5 mM MgCl2 and 1 mM EDTA (pH=7.6). Tissue homogenates were centrifuged at 40000 g for 15 min at 4° C. Membrane pellets were resuspended in the same buffer and membranes were incubated for 10 min at 30° C. in a shaking water bath to eliminate endogenous GABA. Homogenates were centrifuged again under the same conditions. The final pellets were resuspended in ice-cold buffer (pH=7.6) containing 50 mM Tris, 100 mM NaCl, 7 mM MgCl2, 1 mM EDTA and 1 mM dithiotreithol (DTT) to yield a concentration of 20 mg tissue weight/ml and frozen at −70° C. until use. The assay was done in a buffer containing 50 mM Tris (pH=7.4), 100 mM NaCl, 7 mM MgCl2, 1 mM EDTA and 1 mM DTT. Each assay tube contained 150 μL GDP (in a final concentration of 50 μM), 100 μL ligand and 125 μL of the membrane suspension (250 μg tissue/tube). The assay tubes were preincubated for 10 min at 30° C. to assure equilibrium. Nonspecific binding was determined in the presence of 10 μM GTPγS: basal binding was determined in the presence of buffer only. After addition of 50 pM [^35S]GTPγS in a volume of 25 μL to the tubes, membranes were incubated for an additional 60 min at 30° C. The assay was terminated by rapid filtration through Packard UniFilter GF/B using a Packard harvester and washed four times with 1 ml ice-cold buffer. After drying the filters at 40° C. for 1 h, 40 μL Microscint (Packard) was added to the filters and radioactivity of the filters was determined by a TopCount NXT (PerkinElmer, Waltham, Mass.: Alper and Nelson, Eur. J. Pharmacol. 1998, 343, 303-312; Rinken et al, Biochem. Pharmacol. 1999, 57, 155-162). Data thus gathered were used to determine PAM EC50 values for each compound as primary in vitro activity end point.

[2] = tested on: adult rats; assay: Foot shock-induced ultrasonic vocalization (USV) in adult rats; assay type: in vivo, rat; details: 1 mg/kg per os, 1 h before shocking, male Wistar rats, versus vehicle
Description: Foot Shock-Induced Ultrasonic Vocalization (USV) in Adult Rats
(§1) Under stressful conditions, adult rats emit 22 kHz ultrasounds that can be reduced by various pharmacological treatments (De Vry et al, Eur. J. Pharmacol. 1993, 249, 331-339; Sanchez, Eur. J. Pharmacol. 2003, 463, 133-143). […] Therefore, a foot shock-induced vocalization paradigm in adult rats was used to assess efficacy of centrally acting GABAB receptor ligands. Behavioral measurements were carried out on male Wistar rats (200-250 g, Toxicoop, Hungary). Rats were housed in groups of four in plastic cages with a wire grid top in a temperature and light-controlled laboratory animal care unit (22±2° C., 12-h light/dark cycle, lights on at 6:00 AM) with ad libitum access to commercial pellet rat food and tap water. Investigations were approved by the Local Ethical Committee of Gedeon Richter Plc. and were carried out in strict compliance with the European Directive 2010/63/EU regarding the care and use of laboratory animals for experimental procedures and all efforts were made to minimize the number of animals as well as their suffering. In order to evoke emission of ultrasounds, animals were footshocked after a habituation period of 30 s (6 shocks, 1 s, 0.8 mA each, inter-shock interval 10 s) in a sound attenuated shocking chamber (Experimetria, 40×40×80 cm). Investigational compounds were administered at the dose of 1 mg/kg in a solid dispersion formulation in distilled water 1 h before shocking per os. Vocalizations were measured right after the last footshock for 10 min with a Metris Sonotrack system and the total time of vocalizations was registered. Vocalization of parallel vehicle treated animals was considered as control value and inhibition percent was calculated for each compound. At approximately 75 min after treatment and behavioral measurements, blood and brain samples were harvested in order to determine exposures associated with in vivo activity.

[3] = Plasma and brain levels after the USV assay; assay type: in vivo, rat; details: 1 mg/kg per os, approximately 75 min after treatment; for brain exposure at 1 mg/kg: rat brain; for plasma exposure at 1 mg/kg: rat plasma
Description: as §1
In Table 2 compounds of this invention measured in the USV assay are listed. In Table 3 plasma and brain levels of compounds of this invention are listed.

[4] = target: GABAB receptors (Homo sapiens, UniProt O75899+Q9UBS5); details: in vitro positive allosteric activity, [35S]GTPγS binding; cited from earlier work
Chain of GABAB receptors (O75899 42-941): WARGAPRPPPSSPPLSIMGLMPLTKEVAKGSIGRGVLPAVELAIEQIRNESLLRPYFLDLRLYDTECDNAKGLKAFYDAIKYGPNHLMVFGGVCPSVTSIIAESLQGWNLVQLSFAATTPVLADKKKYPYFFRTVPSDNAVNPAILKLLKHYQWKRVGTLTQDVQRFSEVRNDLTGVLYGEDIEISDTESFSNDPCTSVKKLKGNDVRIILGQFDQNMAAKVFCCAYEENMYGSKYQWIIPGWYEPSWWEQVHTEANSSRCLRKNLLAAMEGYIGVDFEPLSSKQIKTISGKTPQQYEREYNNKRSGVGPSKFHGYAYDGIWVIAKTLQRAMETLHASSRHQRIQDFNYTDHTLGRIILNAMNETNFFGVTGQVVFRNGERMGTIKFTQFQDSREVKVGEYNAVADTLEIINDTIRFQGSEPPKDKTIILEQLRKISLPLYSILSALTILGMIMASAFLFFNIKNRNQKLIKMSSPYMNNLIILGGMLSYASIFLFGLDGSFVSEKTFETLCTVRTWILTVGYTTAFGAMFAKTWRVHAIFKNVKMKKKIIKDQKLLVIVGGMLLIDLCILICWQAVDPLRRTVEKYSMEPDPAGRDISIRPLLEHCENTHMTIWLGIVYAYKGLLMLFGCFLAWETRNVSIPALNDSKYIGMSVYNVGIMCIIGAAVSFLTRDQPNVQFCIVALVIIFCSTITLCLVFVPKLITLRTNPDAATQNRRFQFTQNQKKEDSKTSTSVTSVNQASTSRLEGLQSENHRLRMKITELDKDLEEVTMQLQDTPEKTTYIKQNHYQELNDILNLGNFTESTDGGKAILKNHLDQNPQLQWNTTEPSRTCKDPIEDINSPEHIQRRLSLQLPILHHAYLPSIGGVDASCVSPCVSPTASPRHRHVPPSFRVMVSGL
Chain of GABAB receptors (Q9UBS5 15-961 limits assumed): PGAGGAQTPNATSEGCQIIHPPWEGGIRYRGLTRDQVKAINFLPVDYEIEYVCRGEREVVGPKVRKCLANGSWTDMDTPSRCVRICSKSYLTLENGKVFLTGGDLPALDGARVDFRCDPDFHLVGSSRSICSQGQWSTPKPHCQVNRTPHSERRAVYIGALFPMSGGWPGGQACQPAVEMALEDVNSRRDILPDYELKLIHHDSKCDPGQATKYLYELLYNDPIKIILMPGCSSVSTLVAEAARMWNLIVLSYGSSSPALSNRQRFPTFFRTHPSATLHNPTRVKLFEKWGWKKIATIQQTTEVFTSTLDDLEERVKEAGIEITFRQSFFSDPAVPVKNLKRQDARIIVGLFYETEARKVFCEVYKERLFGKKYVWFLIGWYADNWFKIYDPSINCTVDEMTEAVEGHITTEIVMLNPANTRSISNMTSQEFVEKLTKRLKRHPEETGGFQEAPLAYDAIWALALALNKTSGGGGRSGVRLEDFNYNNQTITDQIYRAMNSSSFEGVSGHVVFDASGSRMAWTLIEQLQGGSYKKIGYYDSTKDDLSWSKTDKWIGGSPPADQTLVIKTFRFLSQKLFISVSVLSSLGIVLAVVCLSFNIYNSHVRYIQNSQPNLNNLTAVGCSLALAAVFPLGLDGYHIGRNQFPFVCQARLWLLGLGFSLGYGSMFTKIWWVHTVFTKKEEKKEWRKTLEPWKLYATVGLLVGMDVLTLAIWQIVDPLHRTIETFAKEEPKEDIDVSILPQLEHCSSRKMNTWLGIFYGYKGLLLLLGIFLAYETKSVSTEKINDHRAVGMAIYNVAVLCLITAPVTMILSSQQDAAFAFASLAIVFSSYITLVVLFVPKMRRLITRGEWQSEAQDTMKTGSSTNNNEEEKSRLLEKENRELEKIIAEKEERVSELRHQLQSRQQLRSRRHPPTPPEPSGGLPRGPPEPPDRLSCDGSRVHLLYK

T1 sequence (O88871 41-940): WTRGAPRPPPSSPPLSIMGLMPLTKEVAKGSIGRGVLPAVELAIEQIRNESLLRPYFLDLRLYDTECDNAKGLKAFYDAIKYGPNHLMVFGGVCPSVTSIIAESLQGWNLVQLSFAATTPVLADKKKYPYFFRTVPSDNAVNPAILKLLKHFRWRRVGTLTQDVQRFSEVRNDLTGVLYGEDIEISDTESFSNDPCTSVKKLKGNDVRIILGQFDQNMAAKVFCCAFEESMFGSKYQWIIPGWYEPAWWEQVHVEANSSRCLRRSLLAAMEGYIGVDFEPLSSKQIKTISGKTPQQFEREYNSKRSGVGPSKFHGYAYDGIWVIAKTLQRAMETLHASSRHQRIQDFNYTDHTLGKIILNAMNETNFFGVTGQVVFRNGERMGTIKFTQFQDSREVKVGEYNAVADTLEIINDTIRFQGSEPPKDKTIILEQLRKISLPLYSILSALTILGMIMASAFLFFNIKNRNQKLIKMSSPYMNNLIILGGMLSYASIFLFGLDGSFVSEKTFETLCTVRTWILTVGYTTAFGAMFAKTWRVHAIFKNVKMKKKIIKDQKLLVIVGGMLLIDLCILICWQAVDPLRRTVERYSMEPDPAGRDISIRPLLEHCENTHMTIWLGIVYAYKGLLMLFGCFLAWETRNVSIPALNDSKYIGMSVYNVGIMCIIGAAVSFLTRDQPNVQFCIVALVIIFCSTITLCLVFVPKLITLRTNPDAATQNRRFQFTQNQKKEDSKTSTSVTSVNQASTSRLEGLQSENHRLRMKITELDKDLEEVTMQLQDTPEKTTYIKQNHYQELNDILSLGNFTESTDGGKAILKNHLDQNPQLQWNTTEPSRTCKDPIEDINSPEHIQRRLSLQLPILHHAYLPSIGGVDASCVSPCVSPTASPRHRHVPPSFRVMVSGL
T1 sequence (Q9Z0U4 17-960 limits assumed): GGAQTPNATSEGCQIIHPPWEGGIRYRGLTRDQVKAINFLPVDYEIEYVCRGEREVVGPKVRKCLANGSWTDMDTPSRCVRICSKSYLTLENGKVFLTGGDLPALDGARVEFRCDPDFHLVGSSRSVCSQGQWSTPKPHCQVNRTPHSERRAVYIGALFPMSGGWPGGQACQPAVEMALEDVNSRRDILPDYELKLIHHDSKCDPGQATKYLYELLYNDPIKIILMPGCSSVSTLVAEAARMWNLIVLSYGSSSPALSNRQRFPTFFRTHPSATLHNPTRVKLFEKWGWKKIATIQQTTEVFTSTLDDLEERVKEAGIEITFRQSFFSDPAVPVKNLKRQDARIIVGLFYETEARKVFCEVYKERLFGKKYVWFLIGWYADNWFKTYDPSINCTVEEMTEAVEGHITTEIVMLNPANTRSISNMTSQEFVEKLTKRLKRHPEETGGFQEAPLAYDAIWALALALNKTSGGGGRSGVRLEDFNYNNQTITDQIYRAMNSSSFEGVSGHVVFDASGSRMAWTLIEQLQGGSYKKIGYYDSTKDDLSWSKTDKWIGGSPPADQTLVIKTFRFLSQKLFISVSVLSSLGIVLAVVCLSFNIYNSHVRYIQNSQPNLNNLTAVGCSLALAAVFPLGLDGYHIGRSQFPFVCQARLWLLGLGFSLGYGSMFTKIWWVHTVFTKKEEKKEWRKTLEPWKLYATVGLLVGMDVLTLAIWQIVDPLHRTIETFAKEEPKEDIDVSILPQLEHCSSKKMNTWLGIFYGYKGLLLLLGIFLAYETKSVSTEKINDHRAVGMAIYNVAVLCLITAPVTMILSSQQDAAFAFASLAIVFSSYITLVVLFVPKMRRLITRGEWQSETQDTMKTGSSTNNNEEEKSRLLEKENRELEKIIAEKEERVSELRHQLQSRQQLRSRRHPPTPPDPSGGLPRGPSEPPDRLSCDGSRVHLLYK

| SMILES | EC50 [1] [nM] | brain exposure at 1 mg/kg [3] [ng/g] | plasma exposure at 1 mg/kg [3] [ng/mL] | USV inhibition at 1 mg/kg (%) [2] [%] | binding potency (Faghih et al.) [4] |
| --- | --- | --- | --- | --- | --- |
| CCC(c1ccc(Cl)cc1)c1cc2nc(C)cc(N3CCCCC3CCO)n2n1 (stereo not drawn) [Example 3-1] | – | – | – | – | nanomolar |
| CCCC(c1ccc(Cl)cc1)c1cc2nc(C)cc(N3CCCCC3CCO)n2n1 (stereo not drawn) [Example 5-1] | – | – | – | – | nanomolar |
| Cc1cc(N2CCCCC2CCO)n2nc(CC34CC5CC(CC(C5)C3)C4)cc2n1 (stereo not drawn) [Example 7-1] | – | – | – | – | high micromolar |

More lines, main results first:

| EC50 [1] [nM] | brain exposure at 1 mg/kg [3] [ng/g] | plasma exposure at 1 mg/kg [3] [ng/mL] | SMILES | USV inhibition at 1 mg/kg (%) [2] [%] | binding potency (Faghih et al.) [4] |
| --- | --- | --- | --- | --- | --- |
| < 1 | 18 | 58 | Cc1nc2cc([C@H]3CC[C@H](C(F)(F)F)CC3)nn2c(N2CCC[C@@](C)(C(=O)O)C2)c1C(C)C [Example 3, (3R)-3-methyl-1-[5-methyl-6-(propan-2-yl)-2-[trans-4-(trifluoromethyl)cyclohexyl]-pyrazolo [1,5-a]pyrimidin-7-yl]piperidine-3-carboxylic Acid] | 100 | – |
| 1 to 10 | 68 | 146 | Cc1nc2cc([C@H]3CC[C@H](C(F)(F)F)CC3)nn2c(N2CCC[C@](C)(C(=O)O)C2)c1C(C)C [Example 11] | 71 | – |
| 1 to 10 | 35 | 207 | C[C@@]1(C(=O)O)CCCN(c2c3c(nc4cc([C@H]5CC[C@H](C(F)(F)F)CC5)nn24)CCCCC3)C1 [Example 35] | 57 | – |
